Like-named read-outs stand apart in the source and are kept apart here.

By Ki is commonly meant the dissociation constant of the complex between target and ligand, obtained from inhibition or displacement. Read a high Ki as lower affinity.

Experiment [1] deals with kappa opioid receptor (Homo sapiens, UniProt P41145). The experiment can be described thus: Filtration binding assay: kappa opioid receptor.
For experiment [2], the target named is mu opioid receptor (Homo sapiens, UniProt P35372). The experiment can be described thus: Filtration binding assay: mu opioid receptor.
The target in experiment [3] is delta opioid receptor (Homo sapiens, UniProt P41143). As to the kind of experiment: Filtration binding assay: delta opioid receptor.
Sequence of delta opioid receptor (P41143 whole entry): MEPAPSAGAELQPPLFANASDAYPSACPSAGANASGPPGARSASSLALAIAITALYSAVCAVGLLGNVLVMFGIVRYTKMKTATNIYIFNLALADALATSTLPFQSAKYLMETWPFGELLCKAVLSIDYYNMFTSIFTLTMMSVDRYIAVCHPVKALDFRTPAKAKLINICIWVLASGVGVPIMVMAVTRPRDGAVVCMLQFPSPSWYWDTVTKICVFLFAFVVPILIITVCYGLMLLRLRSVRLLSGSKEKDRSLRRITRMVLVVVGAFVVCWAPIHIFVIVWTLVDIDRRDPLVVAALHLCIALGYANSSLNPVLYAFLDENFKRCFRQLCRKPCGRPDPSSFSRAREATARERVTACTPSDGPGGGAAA

Sequence of mu opioid receptor (P35372 whole entry): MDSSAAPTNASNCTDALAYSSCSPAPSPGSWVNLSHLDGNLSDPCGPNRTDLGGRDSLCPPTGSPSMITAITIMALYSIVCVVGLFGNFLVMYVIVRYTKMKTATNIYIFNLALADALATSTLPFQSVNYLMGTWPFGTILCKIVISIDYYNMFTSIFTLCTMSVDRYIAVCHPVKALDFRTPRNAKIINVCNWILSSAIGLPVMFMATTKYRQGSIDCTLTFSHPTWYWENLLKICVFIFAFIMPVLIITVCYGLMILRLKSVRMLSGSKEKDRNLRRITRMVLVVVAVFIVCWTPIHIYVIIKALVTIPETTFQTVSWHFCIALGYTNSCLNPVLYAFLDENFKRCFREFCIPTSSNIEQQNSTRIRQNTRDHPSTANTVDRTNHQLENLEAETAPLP
Sequence of kappa opioid receptor (P41145 whole entry): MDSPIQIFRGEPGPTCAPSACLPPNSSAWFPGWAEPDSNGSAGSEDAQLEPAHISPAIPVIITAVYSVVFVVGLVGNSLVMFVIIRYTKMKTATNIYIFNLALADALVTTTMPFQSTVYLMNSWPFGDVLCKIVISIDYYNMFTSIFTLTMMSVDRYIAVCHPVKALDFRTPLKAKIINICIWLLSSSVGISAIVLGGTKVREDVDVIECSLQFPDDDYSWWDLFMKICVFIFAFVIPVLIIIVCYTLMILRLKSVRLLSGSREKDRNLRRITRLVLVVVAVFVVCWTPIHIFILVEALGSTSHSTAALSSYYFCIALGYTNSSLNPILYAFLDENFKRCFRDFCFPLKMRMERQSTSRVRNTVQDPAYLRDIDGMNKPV

For `COc1ccc(CCNC[C@H](O)CN2CN(c3ccc(F)cc3)C3(CCN(C4Cc5cccc6cccc4c56)CC3)C2=O)cc1OC` (mixture of isomers) [compound 48], the results for the IC50 in experiment [1], in experiment [2] and in experiment [3] were 170 nM, 540 nM and > 10000 nM, respectively.

For the compound `COc1ccc(CCNC[C@@H](O)CN2CN(c3ccc(F)cc3)C3(CCN(C4Cc5cccc6cccc4c56)CC3)C2=O)cc1OC` (mixture of isomers) [compound 300], the IC50 came to 130 nM in experiment [1], 510 nM in experiment [2] and 4840 nM in experiment [3].

For `COC(=O)c1ccc(CNC[C@H](O)CN2CN(c3ccc(F)cc3)C3(CCN(C4Cc5cccc6cccc4c56)CC3)C2=O)cc1` (mixture of isomers) [compound 348], the values for the IC50 in experiment [1], in experiment [2] and in experiment [3] were 930 nM, 5420 nM and > 10000 nM, respectively.

Take `CNCCCNCC(O)CN1CN(c2ccc(F)cc2)C2(CCN(CC3CCC4CC3C4(C)C)CC2)C1=O` (mixture of isomers) [compound 664]: the Ki in experiment [1] was 720 nM; in experiment [2] it was 260 nM; in experiment [3], > 5000 nM.

On to `CC(=O)NC(CSC[C@H](O)CN1CN(c2ccc(F)cc2)C2(CCN(CC3CCCCCCC3)CC2)C1=O)C(=O)O` (single isomer, unassigned) [compound 447], for which the IC50 in experiment [2] and in experiment [3] was 480 nM in each case.

Take `O=C1N(C[C@@H](O)CNCCN2CCOCC2)CN(c2ccc(F)cc2)C12CCN(CC1CCCCCCC1)CC2` [Compound #1]: the IC50 in experiment [1] is 130 nM; in experiment [2], 620 nM; in experiment [3], > 10000 nM.

With `COc1ccc(CNC[C@@H](O)CN2CN(c3ccc(F)cc3)C3(CCN(CC4CCCCCCC4)CC3)C2=O)cc1OC` [Compound #2], the values for the IC50 in experiment [1], in experiment [2] and in experiment [3] were 190 nM, 1200 nM and > 10000 nM, respectively.

As to `O=C1N(C[C@H](O)CNCc2cc(C(F)(F)F)cc(C(F)(F)F)c2)CN(c2ccc(F)cc2)C12CCN(CC1CCCCCCC1)CC2` [Compound #3], the IC50 in experiment [1] was 440 nM; in experiment [2] it was 4050 nM; in experiment [3] it was 9160 nM.

For `O=C1N(C[C@H](O)CNCCc2c[nH]cn2)CN(c2ccc(F)cc2)C12CCN(CC1CCCCCCC1)CC2` [Compound #4], the IC50 in experiment [1] is 110 nM; in experiment [2], 160 nM; in experiment [3], > 10000 nM.

Turning to `O=C1N(C[C@@H](O)CNCc2ccc(F)cc2F)CN(c2ccc(F)cc2)C12CCN(CC1CCCCCCC1)CC2` [Compound #7], the IC50 in experiment [1] was determined as 130 nM; in experiment [2], 1380 nM; in experiment [3], 7110 nM.

For the compound `O=C1N(C[C@@H](O)CNCCc2c[nH]cn2)CN(c2ccc(F)cc2)C12CCN(CC1CCCCCCC1)CC2` [Compound #28], the IC50 in experiment [1] was 180 nM; in experiment [2], 410 nM; in experiment [3], > 10000 nM.

With `O=C1N(C[C@@H](O)CNc2ccncc2)CN(c2ccc(F)cc2)C12CCN(CC1CCCCCCC1)CC2` [Compound #36, 8-Cyclooctylmethyl-1-(4-fluoro-phenyl)-3-[2-(S)-hydroxy-3-(pyridin-4-ylamino)-propyl]-1,3,8-triaza-spiro[4.5]decan-4-one], the IC50 in experiment [1] came out at 230 nM; in experiment [2] it was 1760 nM; in experiment [3], 1760 nM.

`O=C1N(C[C@@H](O)CN2CCN(c3cccc(C(F)(F)F)c3)CC2)CN(c2ccc(F)cc2)C12CCN(CC1CCCCCCC1)CC2` [Compound #66]: the IC50 amounted to 130 nM in experiment [1], 550 nM in experiment [2] and 5930 nM in experiment [3].

For `CC(C)(C)OC(=O)N1CCN(C[C@H](O)CN2CN(c3ccc(F)cc3)C3(CCN(CC4CCCCCCC4)CC3)C2=O)CC1` [Compound #73], the values for the IC50 in experiment [1], in experiment [2] and in experiment [3] were 250 nM, 680 nM and > 10000 nM, respectively.

`COc1ccc(CCN(C)C[C@@H](O)CN2CN(c3ccc(F)cc3)C3(CCN([C@@H]4Cc5cccc6cccc4c56)CC3)C2=O)cc1OC` [Compound #339, (R)-8-Acenaphthen-1-yl-3-(3-{[2-(3,4-dimethoxy-phenyl)-ethyl]-methyl-amino}-(R)-2-hydroxy-propyl)-1-(4-fluoro-phenyl)-1,3,8-triaza-spiro[4.5]decan-4-one]: the IC50 in experiment [1] is 180 nM; in experiment [2], 210 nM; in experiment [3], > 10000 nM.

Regarding `CN(C)C[C@@H](O)CN1CN(c2ccc(F)cc2)C2(CCN([C@@H]3Cc4cccc5cccc3c45)CC2)C1=O` [Compound #423, (R)-Acenaphthen-1-yl-3-(3-dimethylamino-2-hydroxy-(R)-propyl)-1-(4-fluoro-phenyl)-1,3,8-triaza-spiro[4.5]decan-4-one], the IC50 in experiment [1] (mean where tested more than once, read-out: Kappa IC50) was 590 nM; in experiment [2] (mean where tested more than once, read-out: Mu IC50) it was 310 nM; in experiment [3] (mean where tested more than once, read-out: Delta IC50), > 1000 nM.

Regarding `NC[C@@H](O)CN1CN(c2ccc(F)cc2)C2(CCN(CC3CCCCCCC3)CC2)C1=O` [Compound #620, 3-(3-Amino-2-(R)-hydroxy-propyl)-8-cyclooctylmethyl-1-(4-fluoro-phenyl)-1,3,8-triaza-spiro[4.5]decan-4-one], the results for the Ki in experiment [1], in experiment [2] and in experiment [3] were 190 nM, 280 nM and > 5000 nM, respectively.

Take `O=C1N(C[C@@H](O)CNc2ccncc2)CN(c2ccc(F)cc2)C12CCN(Cc1cc(C(F)(F)F)cc(C(F)(F)F)c1)CC2` [compound 608]: the IC50 in experiment [1] and in experiment [2] was ≥ 10000 nM throughout.

Turning to `O=C1N(C[C@@H](O)CNCc2cccnc2)CN(c2ccc(F)cc2)C12CCN(Cc1cc(C(F)(F)F)cc(C(F)(F)F)c1)CC2` [compound 609], the IC50 in experiment [1] and in experiment [2] was ≥ 10000 nM throughout.

As for `CCOC(=O)CN(Cc1ccccc1)C[C@H](O)CN1CN(c2ccc(F)cc2)C2(CCN(Cc3cc(C(F)(F)F)cc(C(F)(F)F)c3)CC2)C1=O` [compound 670], the IC50 in experiment [1] and in experiment [2] was ≥ 10000 nM in each case.

For the compound `CCCCN(Cc1ccccc1)C[C@H](O)CN1CN(c2ccc(F)cc2)C2(CCN(Cc3cc(C(F)(F)F)cc(C(F)(F)F)c3)CC2)C1=O` [compound 671], the IC50 in experiment [1] and in experiment [2] was ≥ 10000 nM throughout.

For the compound `CC(c1ccccc1)N(Cc1ccccc1)C[C@H](O)CN1CN(c2ccc(F)cc2)C2(CCN(Cc3cc(C(F)(F)F)cc(C(F)(F)F)c3)CC2)C1=O` (stereo partly shown) [compound 672], the IC50 in experiment [1] and in experiment [2] was ≥ 10000 nM each time.

In the case of `COc1ccc(CCN(C)C[C@H](O)CN2CN(c3ccc(F)cc3)C3(CCN(Cc4cc(C(F)(F)F)cc(C(F)(F)F)c4)CC3)C2=O)cc1OC` [compound 673], the IC50 in experiment [1] and in experiment [2] was ≥ 10000 nM throughout.

On to `CN(C)CCN(Cc1ccccc1)C[C@H](O)CN1CN(c2ccc(F)cc2)C2(CCN(Cc3cc(C(F)(F)F)cc(C(F)(F)F)c3)CC2)C1=O` [compound 674], for which the IC50 in experiment [1] and in experiment [2] was ≥ 10000 nM in each case.

As for `O=C1N(C[C@@H](O)CN2CCc3ccccc3C2)CN(c2ccc(F)cc2)C12CCN(Cc1cc(C(F)(F)F)cc(C(F)(F)F)c1)CC2` [compound 682], the IC50 in experiment [1] and in experiment [2] was ≥ 10000 nM throughout.

Turning to `O=C1N(C[C@@H](O)CN2CCN(c3cccc(C(F)(F)F)c3)CC2)CN(c2ccc(F)cc2)C12CCN(Cc1cc(C(F)(F)F)cc(C(F)(F)F)c1)CC2` [compound 683], the IC50 in experiment [1] and in experiment [2] was ≥ 10000 nM in each case.

For `CCN(CC)C(=O)C1CCCN(C[C@H](O)CN2CN(c3ccc(F)cc3)C3(CCN(Cc4cc(C(F)(F)F)cc(C(F)(F)F)c4)CC3)C2=O)C1` (stereo partly shown) [compound 686], the IC50 is 2520 nM in experiment [1] and ≥ 10000 nM in experiment [2].

The values above are taken from patent publication US7582649B2, “Hydroxy alkyl substituted 1,3,8-triazaspiro[4.5]decan-4-one derivatives useful for the treatment of ORL-1 receptor mediated disorders” (Janssen Pharmaceutica, NV, priority 2002, dated 2009).
